Experimental data from patent US5164300A, “Method for determining activity of retroviral protease” (Washington University, priority 1990, dated 1992).
Where a SMILES comes first, the peptide text is derived from it. [ ]: non-standard residue; d: D form. Phe(4-NO2) = N[C@@H](Cc1ccc([N+](=O)[O-])cc1)C(=O)O; Nle = CCCC[C@H](N)C(=O)O; 2Abz = Nc1ccccc1C(=O)O

Legend:
synthetic HIV protease = biological target: T1, synthetic HIV protease (HIV-1 M:B_ARV2/SF2, UniProt P03369); test: Fluorescence assay, kinetic measurements of cleavage by synthetic HIV protease; assay type: biochemical, human immunodeficiency virus (HIV)
T1 construct: homodimer
Method: Fluorescence Assay. Fluorescence measurements on 96-well ELISA plates were made with the Titertek Fluoroskan II, version 3.1. An excitation filter of 355 nm and an emission filter of 430 nm was used. Ten μl of a stock solution (0.1 mg/ml) of HIV protease was incubated with five different concentrations of Abz-NF^* -6 in a final volume of 100 μl at 37° C. with the increase in fluorescence monitored in each well every five minutes. A stock solution of 1 mM Abz-NF^* -6 in DMSO was used. A standard curve relating changes in fluorescent intensity to changes in concentration of product was used to convert fluorescence changes into molar velocities. In order to predetermine the concentration range for Ki determination of inhibitors, it was found convenient to do a preliminary assay by HPLC. Twenty μl of 0.1 mM inhibitor in assay buffer (pH 6.4) and 10 μl of HIV protease (stock solution of 0.05 mg/ml) were preincubated for 5-10 min at 25° C. Twenty μl of 0.1 mM Abz-NF^* -6 was added and the reaction continued for 1 hour. Sixty μl of 10% TFA was added to stop the reaction and the amount of cleavage determined by HPLC. […] By the amount of substrate remaining, an estimated Ki allows appropriate choice of concentration ranges for the inhibitor for the fluorescence assay.
The chromogenic substrates of Nashed et al., Biochem. Biophys. Res. Commun. 163, 1079-1085 (1989), had Km 's estimated to be greater than […].

HIV protease = biological target: T2, HIV protease (HIV-1 M:B_ARV2/SF2, UniProt P03369); test: HPLC HIV protease assay (cleavage of peptide substrates); assay type: biochemical, human immunodeficiency virus (HIV)
T2 construct: synthetic [Aba67,Aba95] homodimer (Schneider and Kent) or cloned enzyme from E. coli, interchangeably
Method: HPLC Assay. The HPLC HIV protease assay was conducted using either synthetic HIV protease [Schneider and Kent, Cell 54, 363-368 (1988)] in which the two Cys residues (Cys^67, Cys^95) were replaced by the isosteric α-aminobutyric acid to eliminate the complications of free sulfhydryl groups, or cloned material expressed in E. coli. In all cases examined, the cleavage patterns and inhibition results were identical. Synthetic HPLC-purified protease (0.05 mg/ml) was dissolved in assay buffer (20 mM phosphate, 20% glycerol, 0.1% CHAPS, pH 6.4). 20 μl of 0.1 mM substrate was mixed with 20 μl assay buffer and 10 μl of HIV protease stock were added and then incubated at 25° for the desired time. The reaction was stopped by the addition of 50 μl of 10% TFA. The sample was applied to a C18 HPLC column developed with 0.05% TFA for 5 min followed by a gradient of 0- 40% acetonitrile in 40 min. For inhibitor studies, 10 μl of the protease solution was preincubated at 25° for 10 min with the 20 μl of 0.1 mM inhibitor (dissolved in DMSO and diluted to 0.1 mM with assay buffer). Then 20 μl of test substrate, acetyl-Thr-Ile-Met-Met-Gln-Arg-NH2 or Abz-NF^* -6, was added in order to determine inhibition of cleavage. Reactions were stopped and cleavage rates were monitored by HPLC as above. […]
Fluorescence Assay. Fluorescence measurements on 96-well ELISA plates were made with the Titertek Fluoroskan II, version 3.1. […] Ten μl of a stock solution (0.1 mg/ml) of HIV protease was incubated with five different concentrations of Abz-NF^* -6 in a final volume of 100 μl at 37° C. with the increase in fluorescence monitored in each well every five minutes. […] A standard curve relating changes in fluorescent intensity to changes in concentration of product was used to convert fluorescence changes into molar velocities. […] Sixty μl of 10% TFA was added to stop the reaction and the amount of cleavage determined by HPLC. […] By the amount of substrate remaining, an estimated Ki allows appropriate choice of concentration ranges for the inhibitor for the fluorescence assay.

[1] = system: purified HIV protease expressed in E. coli; settings: estimated, Nashed et al.; cited from earlier work

CCCC[C@H](NC(=O)[C@@H](NC(=O)[C@@H](NC(=O)c1ccccc1N)[C@@H](C)O)[C@@H](C)CC)C(=O)N[C@@H](Cc1ccc([N+](=O)[O-])cc1)C(=O)N[C@@H](CCC(N)=O)C(=O)N[C@@H](CCCNC(=N)N)C(N)=O [Abz-NF^* -6, Abz-Thr-Ile-Nle-Phe(p-NO2)-Gln-Arg-NH2] (H-[2Abz]TI[Nle][Phe(4-NO2)]QR-NH2)
Km (synthetic HIV protease; Lineweaver-Burk plot, velocities from the linear phase): 110 µM
Kcat (synthetic HIV protease; synthetic HIV protease): 2.9 s⁻¹
Vmax (synthetic HIV protease; synthetic HIV protease): 3.45 mM-mil^-1
ratio Kcat /Km (synthetic HIV protease; synthetic HIV protease): 26,364 M^-1 s^-1
amount of cleavage determined by HPLC (HIV protease; 0.1 mM substrate, 1 hour, in the absence of inhibition): complete cleavage

CCCC[C@H](NC(=O)[C@@H](NC(=O)[C@@H](NC(C)=O)[C@@H](C)O)[C@@H](C)CC)C(=O)N[C@@H](Cc1ccc([N+](=O)[O-])cc1)C(=O)N[C@@H](CCC(N)=O)C(=O)N[C@@H](CCCNC(=N)N)C(N)=O [Ac-Thr-Ile-Nle-Phe(p-NO2)-Gln-Arg-NH2] (Ac-TI[Nle][Phe(4-NO2)]QR-NH2)
cleavage under the conditions of HPLC assay (HIV protease; incubation times of one hour): showed cleavage

CCCC[C@H](NC(=O)[C@@H](NC(=O)c1ccccc1N)[C@@H](C)CC)C(=O)N[C@@H](Cc1ccc([N+](=O)[O-])cc1)C(=O)N[C@@H](CCC(N)=O)C(=O)N[C@@H](CCCNC(=N)N)C(N)=O [Abz-Ile-Nle-Phe(p-NO2)-Gln-Arg-NH2] (H-[2Abz]I[Nle][Phe(4-NO2)]QR-NH2)
cleavage efficiency (HIV protease; analog with the Abz group at position P3, compared with Abz-NF*-6): dramatically reduced

CC(C)C[C@H](NC(=O)[C@@H]1CCCN1C(=O)[C@H](Cc1ccc([N+](=O)[O-])cc1)NC(=O)[C@H](C)NC(=O)[C@H](CCC(N)=O)NC(=O)[C@H](Cc1ccccc1)NC(=O)[C@@H](N)[C@@H](C)O)C(=O)N[C@@H](CCCNC(=N)N)C(=O)N[C@@H](C)C(=O)O [H-Thr-Phe-Gln-Ala-Phe(p-NO2)-Pro-Leu-Arg-Ala-OH] (H-TFQA[Phe(4-NO2)]PLRA-OH)
ratio Kcat /Km [1]: ~23,000 M^-1 s^-1
